Consider one compound from ChEMBL document CHEMBL1667778, “Naphthalene/quinoline amides and sulfonylureas as potent and selective antagonists of the EP4 receptor” (Bioorg Med Chem Lett, 2011).

One data set relates to Liver. The data set can be described thus: Drug level in Sprague-Dawley rat liver at 150 uCi/kg, po after 24 hrs. Format: ADME, organism-based. The conditions noted are these: in vivo.
A short description of data set [1]: Metabolic stability in rat liver microsome. In kind it is ADME. Conditions: microsomes. A general note: Liver microsomes are vesicles of endoplasmic reticulum, rich in cytochrome P450 enzymes.
Data set [2] in a line: Clearance in Sprague-Dawley rat at 5 mg/kg, iv and 20 mg/kg, po. Format: ADME, organism-based. The conditions noted are these: in vivo.
Data set [3] in a line: Bioavailability in Sprague-Dawley rat at 5 mg/kg, iv and 20 mg/kg, po. Format: ADME, organism-based. Conditions: in vivo.
Data set [4] in a line: Bioavailability in Beagle dog at 1 mg/kg, iv and 4 mg/kg, po. In kind it is ADME, organism-based, Canis lupus familiaris. The conditions noted are these: in vivo.
Data set [5] can be described thus: AUC (0 to 24 hrs) in Sprague-Dawley rat at 20 mg/kg, po. In kind it is ADME, organism-based. Conditions: plasma. On the set-up: time < 24 hr, dose 20 mg/kg, route oral.
The nature of data set [6]: Elimination half life in Beagle dog at 1 mg/kg, iv and 4 mg/kg, po. Conditions: in vivo. Format: ADME, organism-based, Canis lupus familiaris.
Data set [7] deals with Hepatocyte. Description: Metabolic stability in rat hepatocytes. Format: ADME, cell-based.
Data set [8] has as its system Hepatocyte. The data set can be described thus: Metabolic stability in human hepatocytes. Format: ADME, cell-based.
The nature of data set [9]: Elimination half life in Sprague-Dawley rat at 5 mg/kg, iv and 20 mg/kg, po. Format: ADME, organism-based. Conditions: in vivo.
Data set [10] can be described thus: Metabolic stability in human liver microsome. Format: ADME. Conditions: microsomes.
Data set [11] can be described thus: AUC (0 to 24 hrs) in Beagle dog at 4 mg/kg, po. In kind it is ADME, organism-based, Canis lupus familiaris. Details: time < 24 hr, dose 4 mg/kg, route oral. Conditions: plasma.
Data set [12] is described as follows: Clearance in Beagle dog at 1 mg/kg, iv and 4 mg/kg, po. Format: ADME, organism-based, Canis lupus familiaris. The conditions noted are these: in vivo.
The next data set deals with Plasma. The data set can be described thus: Drug level in Sprague-Dawley rat plasma at 150 uCi/kg, po after 24 hrs. In kind it is ADME, organism-based. Conditions: in vivo.

For `CCOc1c2c(c(OCC)c3ccccc13)C(=O)N(c1ccc(CC3(NC(=O)NS(=O)(=O)c4c(Cl)cccc4Cl)CC3)cc1C)C2`, the Drug uptake in the data set with Liver and in the data set on Plasma was < 10 pmol/mg each time. The Stability in [1] was determined as 97%; with Hepatocyte [7], 91%; in the data set with Hepatocyte [8], 96%; in data set [10] it was 90%. Further, the clearance is 11 mL/min/kg in data set [2] and 1.2 mL/min/kg in [12]. Further, the bioavailability in data set [3] is 84%; in data set [4] it was 100%. The AUC(0-t) at 24 h in data set [5] came to 37.4 µM·h; in data set [11], 101 µM·h. In addition, the figures for the half-life in data set [6] and in data set [9] were 4.3 h and 6.6 h, respectively.

A word on the bioavailability: it is dose-corrected exposure relative to a reference, in per cent. The term AUC(0-t) denotes the area under the concentration-time curve up to a stated or last time point. Broadly, the half-life is the time needed for the level to fall by half in the phase considered.
